Legend:
[1] = test system: wheat powdery mildew pathogen (Erysiphe graminis f. sp. tritici); assay: Wheat powdery mildew control test; type: in vivo; details: Blumeria graminis, 144 h; 125 ppm drug solution sprayed onto wheat seedlings (Chihoku); lesion area ratio 6 days after inoculation
Experimental: (§1) 5 parts by weight of the dihydropyrimidine compound of the present invention, 93.5 parts by weight of N,N-dimethylformamide, and 1.5 parts by weight of polyoxyethylene sorbitan monolaurate (TWEEN® 20) were mixed and dissolved to obtain an emulsion (I) including 5% of an active ingredient.
(§2) The control value was calculated by the following expression. Control value (%)=100−{lesion area ratio in treated group/lesion area ratio in untreated group}×100 [Expression 1]
Water was added to the emulsion (I) such that the concentration of the dihydropyrimidine compound reached 125 ppm to dissolve the emulsion, and a drug solution was obtained. Subsequently, the drug solution was sprayed onto wheat seedlings (variety: “Chihoku”, leaf stage: 1 to 2) cultivated in seedling pots. After air drying, conidiospores of a wheat powdery mildew pathogen (Erysiphe graminis f. sp. tritici) were sprinkled thereon for inoculation (treated group). As a control, wheat seedlings that were not sprayed with the drug solution were inoculated in the same manner as described above (untreated group). The seedlings were left to stand in a greenhouse at 20° C.
On the 6 days after the inoculation, the leaves of the wheat seedlings were visually observed to determine the lesion area ratio, and the control value was calculated.

Aspergillus niger = assay: Antimicrobial test against Aspergillus niger; type: cell-based; details: 96 h, Vogel medium, 25° C., 4 days in the dark, turbidity at 405 nm, read-out: growth inhibition rate
How it was run: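 A. niger spores dispersed in Vogel medium with compound (DMSO solution) at 25 ppm, cultured in the dark at 25° C. for 4 days. Turbidity at 405 nm compared with untreated culture to give growth inhibition (%).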

[2] = test system: wheat powdery mildew pathogen (Erysiphe graminis f. sp. tritici); assay: Wheat powdery mildew seed treatment test; type: in vivo; details: Blumeria graminis, 168 h; seed treatment 100 g/100 kg wheat seeds (Chihoku); inoculation after 8 to 10 days; lesion area ratio 7 days after inoculation
Experimental: as §1, §2
The emulsion (I) was used to treat seeds such that (weight of dihydropyrimidine compound)/(weight of seeds) reached 100 g/100 kg based on the wheat seeds (variety: “Chihoku”). These seeds were disseminated in pots, and after 8 to 10 days, conidiospores of a wheat powdery mildew pathogen (Erysiphe graminis f. sp. tritici) were sprinkled thereon for inoculation (treated group). As a control, wheat seedlings that were not treated with the drug were inoculated in the same manner as described above (untreated group). The seedlings were left to stand in a greenhouse at 20° C.
(§3) On the 7 days after the inoculation, the leaves of the wheat seedlings were visually observed to determine the lesion area ratio, and the control value was calculated.

[3] = test system: apple scab pathogen (Venturia inaequalis); assay: Apple scab control test; type: in vivo; details: 336 h, 125 ppm drug solution sprayed onto apple seedlings (Orin), lesion area ratio 2 weeks after inoculation
How it was run: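 Compound emulsion diluted in water to 125 ppm and sprayed on 3-4 leaf 'Orin' apple seedlings, which were inoculated with V. inaequalis conidiospores after drying and held humidified at 20° C, 12 h light/dark. Lesion area ratio scored 2 weeks post-inoculation; control value computed relative to unsprayed inoculated plants.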

[4] = test system: cucumber gray mold pathogen (Botrytis cinerea); assay: Cucumber gray mold control test; type: in vivo; details: 125 ppm drug solution sprayed onto cucumber seedlings (cotyledon stage); lesion area ratio 4 days after inoculation
Experimental: as §1, §2
Water was added to the emulsion (I) such that the concentration of the dihydropyrimidine compound reached 125 ppm to dissolve the emulsion, and a drug solution was obtained. Subsequently, the drug solution was sprayed onto cucumber seedlings (variety: “creeping” type, cotyledon stage) cultivated in seedling pots. After air drying, a suspension of conidiospores of a cucumber gray mold pathogen (Botrytis cinerea) was dropped thereon for inoculation (treated group). As a control, cucumber seedlings that were not sprayed with the drug solution were inoculated by dropping in the same manner as described above (untreated group). The seedlings were left to stand in a humidified room at 20° C.
On the 4 days after the inoculation, the leaves of the cucumber seedlings were visually observed to determine the lesion area ratio, and the control value was calculated.

[5] = test system: wheat powdery mildew pathogen (Erysiphe graminis f. sp. tritici); assay: Wheat powdery mildew soil irrigation treatment test; type: in vivo; details: Blumeria graminis, 168 h; soil irrigation with 10 ml of 100 ppm drug solution per pot, wheat (Chihoku); inoculation after 8 to 10 days; lesion area ratio 7 days after inoculation
Experimental: as §1, §2
Pots (5.5 cm×5.5 cm) in which wheat seeds (variety: “Chihoku”) were disseminated were irrigated with 10 ml of a drug solution prepared by adding water to the emulsion (I) so as to have a concentration of the dihydropyrimidine compound of 100 ppm. After 8 to 10 days, conidiospores of a wheat powdery mildew pathogen (Erysiphe graminis f. sp. tritici) were sprinkled thereon for inoculation (treated group). As a control, wheat seedlings that were not treated with the drug were inoculated in the same manner as described above (untreated group). The seedlings were left to stand in a greenhouse at 20° C.
as §3

Meloidogyne incognita = assay: Efficacy against Meloidogyne incognita; type: in vivo; details: 96 h, second-instar larvae (L2), 40 μL of 125 ppm drug solution added to 160 μL suspension per well, 20° C., 4 days, read-out: nematode mortality rate
Experimental: as §1
A suspension containing about 50/0.16 mL second-instar larvae (L2) of Meloidogyne incognita was poured into a 96-well microplate at 160 μL per well. Then, a drug solution prepared by adding water to the emulsion (I) so as to have a concentration of the dihydropyrimidine compound of 125 ppm was poured at 40 μL per well. The plate was left to stand under a 20° C. condition for 4 days.
Mortality was determined, and the nematode mortality rate was calculated. […] The test repeated twice.

[6] = test system: wheat brown rust pathogen (Puccinia recondita); assay: Wheat brown rust control test; type: in vivo; details: 288 h, 125 ppm drug solution sprayed onto wheat seedlings (Norin 61), lesion area ratio 12 days after inoculation
Experimental: as §1, §2
Water was added to the emulsion (I) such that the concentration of the dihydropyrimidine compound reached 125 ppm to dissolve the emulsion, and a drug solution was obtained. Subsequently, the drug solution was sprayed onto wheat seedlings (variety: “Norin 61”, leaf stage: 1 to 2) cultivated in seedling pots. After air drying, uredospores of a wheat brown rust pathogen (Puccinia recondita) were sprinkled on wheat seedlings sprayed with the drug solution for inoculation (treated group). As a control, wheat seedlings that were not sprayed with the drug solution were inoculated in the same manner as described above (untreated group). The seedlings were left to stand in a greenhouse at 20° C.
On the 12 days after the inoculation, the leaves of the wheat seedlings were visually observed to determine the lesion area ratio, and the control value was calculated.

Row | Compound | pest or weed control at 125 ppm [1] | inhibition at 25 ppm (Aspergillus niger) | pest or weed control at 100 g/100 kg seed [2] | pest or weed control at 125 ppm [3] | Control value [4] | pest or weed control at 100 ppm [5] | mortality at 125 ppm (Meloidogyne incognita) | pest or weed control at 125 ppm [6]
1 | COc1ccc(F)cc1C(O)Cn1cc(/C(C)=N/OC(C)C)c(=O)n(C[C@H](C)NC(=O)C(C)C)c1=O (stereo partly drawn) [A-75, N-((2S)-1-(3-(2-(5-fluoro-2-methoxyphenyl)-2-hydroxyethyl)-5-((E)-1-(isopropoxyimino)ethyl)-2,6-dioxo-3,6-dihydropyrimidin-1(2H)-yl)propan-2-yl)isobutyramide] | ≥ 75% | ≥ 50% | ≥ 75% | ≥ 75% | ≥ 75% | ≥ 75% | – | –
2 | C=C1CCN(C(=O)C(C)n2c(=O)c(C=NOC(C)C)cn(CC(OCCC#N)c3cc(F)ccc3OC)c2=O)CC1 (stereo not drawn) [A-64] | – | – | – | – | – | – | ≥ 60% | ≥ 75%
3 | COc1ccc(F)cc1C(O)Cn1cc(C=NOC(C)C)c(=O)n(C(C)C(=O)NC(C)C)c1=O (stereo not drawn) [A-93] | ≥ 75% | ≥ 50% | – | ≥ 75% | – | – | – | ≥ 75%
4 | CON=C(C)c1cn(CC(O)c2cc(F)ccc2OC)c(=O)n(C(C)C(=O)NC(C)C)c1=O (stereo not drawn) [A-28] | – | – | – | – | – | – | ≥ 60% | –
5 | COc1ccc(F)cc1C(Cn1cc(/C(C)=N/OC(C)C)c(=O)n(CC(C)(C)C(=O)NC(C)C)c1=O)OCCC#N (stereo not drawn) [A-1] | ≥ 75% | ≥ 50% | – | ≥ 75% | – | – | – | ≥ 75%
6 | COc1ccc(F)cc1C(Cn1cc(/C(C)=N/OC(C)C)c(=O)n(CCNC(=O)C(C)C)c1=O)OC (stereo not drawn) [A-100] | ≥ 75% | ≥ 50% | – | ≥ 75% | – | – | – | ≥ 75%
7 | COc1ccc(F)cc1C(Cn1cc(C=NOC(C)C)c(=O)n(C(C)C(=O)NC2CC2)c1=O)OCCC#N (stereo not drawn) [A-80] | ≥ 75% | ≥ 50% | – | ≥ 75% | – | – | – | ≥ 75%
8 | COc1ccc(F)cc1C(Cn1cc(/C(C)=N/OC(C)C)c(=O)n(C[C@H](C)NC(=O)C(C)C)c1=O)OC (stereo partly drawn) [A-61] | ≥ 75% | ≥ 50% | ≥ 75% | ≥ 75% | – | – | – | ≥ 75%
9 | CCON=Cc1cn(CC(OCCC#N)c2cc(F)ccc2OC)c(=O)n(C(C)C(=O)NC(C)C)c1=O (stereo not drawn) [A-23] | ≥ 75% | ≥ 50% | – | ≥ 75% | – | – | – | ≥ 75%
10 | COc1ccc(F)cc1C(Cn1cc(C=NOC(C)C)c(=O)n(C[C@H](C)NC(=O)C(C)C)c1=O)OCCC#N (stereo partly drawn) [A-60] | ≥ 75% | ≥ 50% | ≥ 75% | ≥ 75% | – | ≥ 75% | – | ≥ 75%
11 | COc1ccc(Br)cc1C(O)Cn1cc(/C(C)=N/OC(C)C)c(=O)n(C[C@H](C)NC(=O)C(C)C)c1=O (stereo partly drawn) [C-145] | – | – | – | – | – | – | ≥ 60% | –
12 | CC[C@@H](Cn1c(=O)c(/C(C)=N/OC(C)C)cn(CC(O)c2ccccc2OC)c1=O)NC(=O)C(C)C (stereo partly drawn) [C-92] | – | – | – | – | – | – | ≥ 60% | –
13 | COc1ccc(F)cc1C(O)Cn1cc(C=NOC(C)C)c(=O)n(C[C@H](C)NC(=O)C(C)C)c1=O (stereo partly drawn) [A-76] | ≥ 75% | ≥ 50% | ≥ 75% | ≥ 75% | – | ≥ 75% | – | ≥ 75%
14 | COc1ccc(F)cc1C(Cn1cc(/C(C)=N/OC(C)C)c(=O)n(C[C@H](C)NC(=O)C(C)C)c1=O)OCCC#N (stereo partly drawn) [A-63] | ≥ 75% | ≥ 50% | – | ≥ 75% | – | – | – | ≥ 75%
15 | C=CCOC(Cn1cc(/C(C)=N/OCC)c(=O)n(CCNC(=O)C(C)C)c1=O)c1cc(F)ccc1OC (stereo not drawn) [A-95] | ≥ 75% | ≥ 50% | – | ≥ 75% | – | – | – | ≥ 75%
16 | CCO/N=C(\C)c1cn(CC(OCCC#N)c2cc(F)ccc2OC)c(=O)n(CC(C)(C)C(=O)NC(C)C)c1=O (stereo not drawn) [A-24] | ≥ 75% | ≥ 50% | – | ≥ 75% | – | – | – | ≥ 75%

Source: patent US12593845B2 (priority 2019, dated 2026)
